Experimental data: patent US20210283107A1, “Methods to Expand the Spectrum of Gram-Positive Antibiotics” (NORTH CAROLINA STATE UNIVERSITY, priority 2016, published 2021)

Tested on: AB5075
Assay: G. mellonella model infected with AB5075, survival
Type: in vivo, Galleria mellonella
Method: Galleria mellonella larvae (Speedy Worm, Alexandria, Minn.) were used within ten days of shipment from the vendor. After reception of worms, larvae were kept in the dark at room temperature for at least 24 h before infection. Larvae weighing between 200 to 300 mg were used in the survival assay. Using a 10 μL glass syringe (Hamilton, Reno, Nev.) fitted with a 30 G needle (Exel International, St. Petersburg, Fl), 5 μL of the desired compound and concentration were injected into the last left proleg. After 2.5 h, a second 5 μL injection containing 6×10^5 CFU of Acinetobacter baumannii 5075 was injected into the second to last left proleg. Injected worms were left at room temperature in the dark while being assessed at 24 h intervals over 6 days. […] Experiment was repeated 7 times using 10 larvae per experimental group.

Nc1nc(-c2ccc(NC(=O)c3cc(Cl)cc(Cl)c3)cc2)c[nH]1 [Compound 1]
survival rate after 6 days (combination treatment of clarithromycin (25 mg/kg) and compound 1 (100 mg/kg)): 42% | survival after 6 days (compound 1 alone at 100 mg/kg): 5%
